Literature values as cited in patent US7618664B2 (Cooperatieve Verkoop-en Productievereniging Van …, priority 2001, dated 2009).

Conditions: human body

calcium gluconate
toxicity: essentially not show any toxicity
